We go through eleven compounds from ChEMBL document CHEMBL1201862, “PubChem BioAssay data set” (2004).

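A five-concentration, 48-hour dose response in 96-well plates underlies each endpoint, interpolated linearly between surrounding concentrations. GI50 marks 50% less growth.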 The source made the active and inactive calls. Cut-off read from the data, not from the text of the source: active = GI50 up to about 1.1 µM and inactive = higher.

What all share (assay): NCI tumour cell line growth inhibition, 48 h
In assay [1] the test system is MDA-MB-435.
The subject of assay [2] is UACC-62.
Assay [3] has as its system COLO 205.
The subject of assay [4] is MDA-MB-231.
The test system of assay [5] is UACC-257.
The test system of assay [6] is ACHN.
Assay [7] has as its system SW-620.
Assay [8] relates to NCI-H226.
Assay [9] concerns NCI-H23.
In assay [10] the test system is SNB-75.
Assay [11] deals with KM12.
Assay [12] deals with A498.
For assay [13], the system named is K562.
Assay [14] deals with SK-MEL-2.
For assay [15], the system named is DU-145.
For assay [16], the system named is SK-OV-3.
The subject of assay [17] is SNB-19.
For assay [18], the system named is SK-MEL-28.
Assay [19] deals with RXF 393.

On to `OC12COc3ccccc3C1Oc1ccccc1C2` (stereo not given), for which the GI50 in assay [1], in assay [2], in assay [3], in assay [4], in assay [5] and in [6] was > 100 µM (inactive) throughout. In addition, the GI50 in [7], in [8], in [9], in assay [10], in [11] and in assay [12] was > 100 µM (inactive) each time. In addition, the GI50 in [13], in assay [14], in assay [15] and in assay [16] was > 100 µM (inactive) in each case.
On to `CC1(O)CCC(C(C)(C)O)CC1` (stereo not given) [TERPIN], for which the GI50 in assay [1], in [17], in [2], in [3], in assay [18] and in assay [4] was > 100 µM (inactive) in each case. Moreover, the GI50 in [5], in assay [6], in [7], in assay [8], in [9] and in [10] was > 100 µM (inactive) in each case. The GI50 in [11], in assay [12], in assay [13], in [14], in [15] and in assay [16] was > 100 µM (inactive) throughout.
Consider `C/C(=N\NC(=S)Nc1ccc(C)cc1)c1nc2cccnc2[nH]1`, for which the GI50 in [1] is 2.94 µM (inactive); in assay [17], 3.2 µM (inactive); in assay [2], 2.81 µM (inactive); in assay [3], 3.9 µM (inactive); in [18], 2.86 µM (inactive); in assay [4] it was 1.17 µM (inactive). Further, the GI50 in assay [5] is 2.38 µM (inactive); in assay [6], 1.44 µM (inactive); in [7], 3.57 µM (inactive); in assay [8], 1.78 µM (inactive); in assay [9] it was 2.65 µM (inactive); in assay [10] it was 5.77 µM (inactive). For the same compound, the GI50 was 7.6 µM (inactive) in assay [11]; 7.71 µM (inactive) in assay [12]; 2.9 µM (inactive) in assay [13]; 10.8 µM (inactive) in [14]; 2.59 µM (inactive) in assay [15]; 4.3 µM (inactive) in [16].
For `O=C(O)c1ccc(NNC(=O)c2cccc3c(=O)c4ccccc4[nH]c23)cc1`, the GI50 is > 100 µM (inactive) in [1]; > 100 µM (inactive) in assay [17]; > 100 µM (inactive) in assay [2]; > 100 µM (inactive) in assay [3]; > 100 µM (inactive) in [18]; 75.3 µM (inactive) in [4]. Also, the GI50 is > 100 µM (inactive) in assay [5]; 74.1 µM (inactive) in [6]; > 100 µM (inactive) in assay [7]; > 100 µM (inactive) in assay [8]; > 100 µM (inactive) in assay [9]; > 100 µM (inactive) in [10]. Further, the GI50 in assay [11] was > 100 µM (inactive); in assay [13] it was 58.6 µM (inactive); in assay [14], > 100 µM (inactive); in assay [15], > 100 µM (inactive); in assay [16] it was > 100 µM (inactive); in [19] it was > 100 µM (inactive).
As to `COC(=O)c1ccc2c(c1)CC1(C2)Cc2ccc3c(c2C1)CCC3` (stereo not given), the GI50 was 3.25 µM (inactive) in [1]; 33 µM (inactive) in [17]; 14.6 µM (inactive) in [2]; 9.84 µM (inactive) in assay [3]; 86.1 µM (inactive) in assay [18]; 5.07 µM (inactive) in [4]. Further, the GI50 in [5] was 20.2 µM (inactive); in assay [6], 57 µM (inactive); in [7], 14.4 µM (inactive); in assay [8], 47.6 µM (inactive); in [9], 57.3 µM (inactive); in assay [10], 33.3 µM (inactive). Besides, the GI50 in assay [11] is 12.6 µM (inactive); in [13] it was 6.64 µM (inactive); in assay [15], 53.6 µM (inactive); in assay [16] it was 13.6 µM (inactive); in assay [19], 17.7 µM (inactive).
With `O=C(c1ccccc1)c1c(C(F)(F)F)[n+]([O-])c2cc(Cl)c(Cl)cc2[n+]1[O-]`, the GI50 was 1.41 µM (inactive) in assay [1]; 1.56 µM (inactive) in [17]; 3.97 µM (inactive) in assay [2]; 2.93 µM (inactive) in assay [3]; 2.86 µM (inactive) in assay [18]; 0.229 µM (active) in [4]. Moreover, the GI50 was 0.243 µM (active) in assay [5]; 0.764 µM (active) in assay [6]; 0.619 µM (active) in assay [7]; 3.02 µM (inactive) in assay [8]; 0.565 µM (active) in assay [9]; 1.31 µM (inactive) in [10]. The GI50 in assay [11] was 0.548 µM (active); in assay [13], 2.24 µM (inactive); in assay [14] it was 3.32 µM (inactive); in assay [15], 0.45 µM (active); in assay [16] it was 4.8 µM (inactive); in [19], 1.82 µM (inactive).
Turning to `CCOC(=O)c1c(N)n(-c2ccccc2)c(=S)n(-c2ccccc2)c1=O`, the GI50 in assay [1], in assay [17], in [2], in [3], in [18] and in [4] was > 100 µM (inactive) throughout. Besides, the GI50 in [5], in assay [6], in assay [7], in assay [8], in [9] and in assay [10] was > 100 µM (inactive) throughout. In addition, the GI50 in [11], in [13], in assay [14], in assay [15] and in [19] was > 100 µM (inactive) in each case.
Consider `CC(C)(C)OC(=O)Cn1ncn(NC(=O)Cc2ccccc2)c1=O`, for which the GI50 in assay [1], in [17], in [2], in assay [3], in [18] and in assay [4] was > 10 µM (inactive) in each case. Also, the GI50 in assay [5], in assay [6], in assay [7], in assay [8], in [9] and in assay [11] was > 10 µM (inactive) in each case. In addition, the GI50 in assay [12], in assay [13], in [15] and in assay [16] was > 10 µM (inactive) throughout.
`Cc1ccc(S(=O)(=O)C2=Cc3ccccc3C2(O)c2ccccc2)cc1` (stereo not given): the GI50 in [1] was 30.8 µM (inactive); in [17] it was 43.8 µM (inactive); in [3] it was 24.5 µM (inactive); in assay [18] it was 16.3 µM (inactive); in assay [4], 17.7 µM (inactive); in [5] it was > 10 µM (inactive). The GI50 was 34.3 µM (inactive) in assay [6]; 29.8 µM (inactive) in [7]; 29.3 µM (inactive) in assay [8]; 37.2 µM (inactive) in assay [9]; 31 µM (inactive) in assay [10]; 21.4 µM (inactive) in [11]. Further, the GI50 in [12] is > 10 µM (inactive); in assay [13], 25.1 µM (inactive); in [14] it was 15.4 µM (inactive); in assay [15] it was 34.8 µM (inactive); in assay [16] it was 29.3 µM (inactive).
As to `COc1ccc(N(C)S(=O)(=O)c2ccccc2)cc1`, the GI50 was 59.2 µM (inactive) in assay [1]; > 100 µM (inactive) in [17]; 75 µM (inactive) in assay [2]; > 100 µM (inactive) in [3]; > 100 µM (inactive) in [18]; > 100 µM (inactive) in assay [4]. Further, the GI50 in assay [5] is > 100 µM (inactive); in assay [6], > 100 µM (inactive); in [7], > 100 µM (inactive); in [8], > 100 µM (inactive); in assay [9] it was 67.1 µM (inactive); in assay [10] it was > 100 µM (inactive). The GI50 is > 100 µM (inactive) in assay [11]; 28.5 µM (inactive) in [13]; > 100 µM (inactive) in assay [14]; > 100 µM (inactive) in [15]; > 100 µM (inactive) in [16]; > 100 µM (inactive) in [19].
As for `CC(=O)N[C@@H](Cc1ccc(O)cn1)C(=O)NC1CCCCC1`, the GI50 in assay [1], in assay [17], in assay [2], in assay [3], in assay [18] and in assay [4] was > 100 µM (inactive) in each case. Besides, the GI50 in assay [5], in assay [6], in assay [7], in assay [8], in [9] and in assay [11] was > 100 µM (inactive) throughout. The GI50 in assay [12], in assay [13], in assay [14], in assay [15] and in assay [16] was > 100 µM (inactive) each time.
